Several values for one entry are separate records, joined by “and”; a condition that tells them apart may be missing. Equal entries are not always repeated. Entries after “also recorded” stand apart in the source; their conditions may differ.
Legend:
dogs = assay: Gentamycin-induced acute kidney injury in dogs: serum creatinine, BUN, USG, UPC; format: in vivo, dog; details: individual dogs; for Creatinine: gentamycin 10 mg/Kg IV q8 hours
Source text: Five spayed female young adult hound-type mogrel dogs were confirmed to be in good health based on physical examination, complete blood count, blood chemistry analysis, urinalysis, urine protein-to-creatine ratio (UPC) and aerobic urine culture.

[1] = GFR in swine by iohexol plasma disappearance; format: in vivo, Osawbaw swine; details: same swine
[2] = GFR in dog by iohexol analysis; details: 33.0 kg dog
Source text: The higher noise in the data was caused by the movement during the data collection as the dog was not anesthetized.

[3] = GFR by iohexol plasma clearance in gentamycin-induced AKI dogs; format: in vivo, dog
Protocol: EDTA-anticoagulated blood was collected at 0, 5, 10, 20, 30, 60, 180, 240 and 300 minutes post-injection, centrifuged within 3 hours, and stored at -20° C.

[4] = Intravital 2-photon microscopy of plasma clearance (fluorescence intensity / intensity ratio in kidney blood vessels) after bolus infusion; details: kidney of normal male rat, bolus IV infusion of dye mixture, 12-200 seconds
Source text: These images were taken as function of time after a bolus intravenous infusion of a dye mixture containing a FITC-inulin (5.5 kD) and 500 kD dextran labeled with a sulforhodamine 101, i.e. Texas Red®. […] A red blood cell (RBC) appears as a dark object as it excludes dye.
The intensity ratio from the blood vessels in FIG. 3 changes over time with a change of relative concentrations of the two dyes.
Each data point in FIG. 5 was the average ratio value of the same region from a blood vessel extracted from an image time-series (such as the images shown in FIG. 3). The data points were plotted every 0.5 seconds up to 200 seconds.

**Q.** Which BUN (dogs; Day 0 (baseline)) does the source give for gentamycin here?
**A.** 20 mg/dl (2×) and 14 mg/dl and 16 mg/dl and 9 mg/dl

**Q.** And the “UPC (urine protein-to-creatine ratio)” value (dogs; Day 0 (baseline))?
**A.** 0.1 (4×) and 0.2

**Q.** What about the “USG (urine specific gravity)” value (dogs; Day 0 (baseline)) of the same compound?
**A.** 1.014 and 1.030 and 1.048 and 1.044 and 1.052

**Q.** What about the Creatinine (dogs; Day 0 (first day of injection, baseline)) of the same compound?
**A.** 0.8 mg/dl and 1.1 mg/dl and 0.9 mg/dl (2×) and 0.7 mg/dl

**Q.** And the Creatinine (dogs; Day 3)?
**A.** 0.9 mg/dl (2×) and 1.0 mg/dl (2×) and 0.8 mg/dl

**Q.** What about the BUN (dogs; Day 3) of the same compound?
**A.** 16 mg/dl and 12 mg/dl (2×) and 15 mg/dl and 14 mg/dl

**Q.** What about the “UPC (urine protein-to-creatine ratio)” value (dogs; Day 3) of the same compound?
**A.** 0.5 and 1.0 and 0.2 and 0.3 (2×)

**Q.** And the “USG (urine specific gravity)” value (dogs; Day 3)?
**A.** 1.008 and 1.014 (2×) and 1.000 and 1.010

**Q.** What about the Creatinine (dogs; Day 6) of the same compound?
**A.** 1.2 mg/dl and 1.5 mg/dl and 1.4 mg/dl and 1.0 mg/dl (2×)

**Q.** What about the BUN (dogs; Day 6) of the same compound?
**A.** 22 mg/dL and 15 mg/dL and 16 mg/dL and 10 mg/dL and 14 mg/dL

**Q.** What about the “UPC (urine protein-to-creatine ratio)” value (dogs; Day 6) of the same compound?
**A.** 0.5 (2×) and 0.0 (2×) and 0.6

**Q.** What about the “USG (urine specific gravity)” value (dogs; Day 6) of the same compound?
**A.** 1.009 and 1.003 and 1.007 and 1.005 and 1.010

**Q.** And the Creatinine (dogs; Day 9)?
**A.** 1.5 mg/dL and 5.3 mg/dL and 1.9 mg/dL and 1.6 mg/dL and 1.1 mg/dL

**Q.** And the BUN (dogs; Day 9)?
**A.** 16 mg/dl (2×) and 97 mg/dl and 18 mg/dl and 14 mg/dl

**Q.** What about the “UPC (urine protein-to-creatine ratio)” value (dogs; Day 9) of the same compound?
**A.** 2.1 and 2.8 and 3.1 and 1.7 and 1.6

**Q.** And the “USG (urine specific gravity)” value (dogs; Day 9)?
**A.** 1.006 (2×) and 1.011 and 1.004 and 1.005

**Q.** Which “GFR obtained using iohexol samples drawn for six hours” value [1] does the source give for `CC(=O)N(CC(O)CO)c1c(I)c(C(=O)NCC(O)CO)c(I)c(C(=O)NCC(O)CO)c1I` (stereo not drawn) [iohexol] here?
**A.** 2.02 mL/min/kg

**Q.** And the “GFR obtained from iohexol analysis” value [2]?
**A.** 4.50 mL/min/kg

**Q.** And the “GFR: Iohexol Plasma Clearance” value ([3]; Day 0, 150 mg/kg iohexol IV, individual dogs (repeat results for two dogs), 150 mg/kg)?
**A.** 2.77 mL/min/kg and 4.00 mL/min/kg and 3.71 mL/min/kg and 3.82 mL/min/kg and 4.40 mL/min/kg

**Q.** What about the “GFR: Iohexol Plasma Clearance” value ([3]; Day 3 of gentamycin, individual dogs) of the same compound?
**A.** 2.00 mL/min/kg and 3.45 mL/min/kg and 2.05 mL/min/kg and 4.17 mL/min/kg and 3.06 mL/min/kg

**Q.** And the “GFR: Iohexol Plasma Clearance” value ([3]; Day 6 of gentamycin, individual dogs)?
**A.** 2.78 mL/min/kg and 2.05 mL/min/kg and 2.46 mL/min/kg and 1.44 mL/min/kg and 3.36 mL/min/kg

**Q.** What about the “GFR: Iohexol Plasma Clearance” value ([3]; Day 9 of gentamycin, individual dogs) of the same compound?
**A.** 1.87 mL/min/kg and 0.10 mL/min/kg and 1.49 mL/min/kg and 2.47 mL/min/kg

**Q.** And the clearance ([3]; hound-type mongrel, dog, plasma, iv, 150 mg/kg, GFR: Iohexol Plasma Clearance, Day 0, 150 mg/kg iohexol IV, individual dogs (repeat results for two dogs))?
**A.** 3.28 mL/min/kg

**Q.** For “fluorescein isothiocyanate-inulin [FITC-inulin]”, which “glomerular filtration / plasma clearance seen as capillary fluorescence intensity over time” value [4] is on record?
**A.** rapidly filtered into the proximal tubular lumen; also recorded: immediate plasma clearance
